Results on 14 compounds are retold here after US20210070748A1, “INHIBITORS OF BRUTONS TYROSINE KINASE” (Pharmacyclics LLC, priority 2015, published 2021).

For orientation: IC50 means the point on the concentration scale where inhibition reaches its midpoint.

Structures are written as SMILES.

Type in all cases: biochemical
The target in one assay is T1, BTK-WT (Homo sapiens, UniProt Q06187).
T1 construct: purified from insect cells as a full-length construct containing an N-terminal 6X-His tag; His6 (N); made in house; host or cells: insect cells (baculovirus Sf21 in Method B)
T1 sequence (Q06187 whole entry): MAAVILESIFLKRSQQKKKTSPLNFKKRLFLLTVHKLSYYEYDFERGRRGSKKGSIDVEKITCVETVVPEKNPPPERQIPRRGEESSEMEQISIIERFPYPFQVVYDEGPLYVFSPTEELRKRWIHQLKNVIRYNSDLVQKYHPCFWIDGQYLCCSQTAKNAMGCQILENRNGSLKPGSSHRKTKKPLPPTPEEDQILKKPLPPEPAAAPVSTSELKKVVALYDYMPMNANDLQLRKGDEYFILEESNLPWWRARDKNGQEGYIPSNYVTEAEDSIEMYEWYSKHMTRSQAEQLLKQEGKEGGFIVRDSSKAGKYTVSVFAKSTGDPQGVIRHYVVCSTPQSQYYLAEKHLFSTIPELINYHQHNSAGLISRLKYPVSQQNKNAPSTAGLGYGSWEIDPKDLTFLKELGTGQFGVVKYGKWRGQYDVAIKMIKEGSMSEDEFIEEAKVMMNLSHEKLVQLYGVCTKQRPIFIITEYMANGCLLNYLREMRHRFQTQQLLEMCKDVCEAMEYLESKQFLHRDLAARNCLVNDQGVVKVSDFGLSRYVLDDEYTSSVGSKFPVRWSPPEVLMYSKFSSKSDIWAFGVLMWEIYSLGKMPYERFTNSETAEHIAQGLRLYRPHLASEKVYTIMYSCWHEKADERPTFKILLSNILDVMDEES
Kind of assay: Btk in vitro inhibitory activity (one of Method A TR-FRET, Method B electrophoretic mobility shift, Method C radiometric filter binding). Conditions: D-compounds panel data; read-out: IC50 BTK-WT.

In the next assay the target is LCK (Homo sapiens, UniProt P06239). Kind of assay: Inhibition of a panel of kinases, in vitro HotSpot kinase assay: LCK. Conditions: D-compounds panel data; 1 μM ATP; read-out: IC50 LCK.
LCK, sequence (P06239 whole entry): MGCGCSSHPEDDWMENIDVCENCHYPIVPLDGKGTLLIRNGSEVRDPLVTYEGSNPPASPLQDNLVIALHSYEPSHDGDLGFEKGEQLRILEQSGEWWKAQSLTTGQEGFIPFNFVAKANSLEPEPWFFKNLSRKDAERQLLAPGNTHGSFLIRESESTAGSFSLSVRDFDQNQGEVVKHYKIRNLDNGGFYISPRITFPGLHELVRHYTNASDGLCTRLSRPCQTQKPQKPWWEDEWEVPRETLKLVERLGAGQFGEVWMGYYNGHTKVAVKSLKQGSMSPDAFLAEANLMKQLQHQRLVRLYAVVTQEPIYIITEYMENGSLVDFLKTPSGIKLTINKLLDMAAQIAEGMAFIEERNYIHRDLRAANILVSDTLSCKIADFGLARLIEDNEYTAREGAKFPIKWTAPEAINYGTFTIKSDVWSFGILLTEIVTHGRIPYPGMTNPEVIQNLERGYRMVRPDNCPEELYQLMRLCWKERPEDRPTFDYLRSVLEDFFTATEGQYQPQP
The next assay concerns the target T2, ITK (Homo sapiens, UniProt Q08881).
T2 sequence (Q08881 1-620): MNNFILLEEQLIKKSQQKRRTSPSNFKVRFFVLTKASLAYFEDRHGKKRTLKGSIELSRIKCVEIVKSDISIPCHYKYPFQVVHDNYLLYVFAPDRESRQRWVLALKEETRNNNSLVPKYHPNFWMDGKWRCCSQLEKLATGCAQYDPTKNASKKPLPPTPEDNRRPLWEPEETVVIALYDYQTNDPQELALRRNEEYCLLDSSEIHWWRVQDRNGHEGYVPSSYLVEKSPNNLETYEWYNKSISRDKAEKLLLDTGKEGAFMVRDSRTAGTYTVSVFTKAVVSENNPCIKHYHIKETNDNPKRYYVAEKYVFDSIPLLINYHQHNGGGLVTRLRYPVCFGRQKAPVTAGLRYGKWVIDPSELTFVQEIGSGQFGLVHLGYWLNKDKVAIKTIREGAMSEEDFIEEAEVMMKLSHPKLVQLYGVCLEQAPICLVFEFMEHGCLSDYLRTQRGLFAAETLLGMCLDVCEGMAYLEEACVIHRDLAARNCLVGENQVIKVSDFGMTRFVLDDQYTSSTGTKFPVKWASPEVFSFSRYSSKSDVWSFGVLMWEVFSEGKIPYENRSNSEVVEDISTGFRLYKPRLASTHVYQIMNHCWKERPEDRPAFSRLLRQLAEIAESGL
The assay can be described thus: Inhibition of a panel of kinases, in vitro HotSpot kinase assay: ITK. Conditions: D-compounds panel data; 1 μM ATP. As to the method: (§1) The degree of inhibition of a panel of kinases is determined using the in vitro HotSpot kinase assay (purified enzymes, ^33P-ATP, an appropriate substrate and 1 μM ATP).

The target of another assay is SRC (Homo sapiens, UniProt P12931). The assay can be described thus: Inhibition of a panel of kinases, in vitro HotSpot kinase assay: SRC. Conditions: D-compounds panel data; 1 μM ATP. As to the method: as §1
SRC, sequence (P12931 whole entry): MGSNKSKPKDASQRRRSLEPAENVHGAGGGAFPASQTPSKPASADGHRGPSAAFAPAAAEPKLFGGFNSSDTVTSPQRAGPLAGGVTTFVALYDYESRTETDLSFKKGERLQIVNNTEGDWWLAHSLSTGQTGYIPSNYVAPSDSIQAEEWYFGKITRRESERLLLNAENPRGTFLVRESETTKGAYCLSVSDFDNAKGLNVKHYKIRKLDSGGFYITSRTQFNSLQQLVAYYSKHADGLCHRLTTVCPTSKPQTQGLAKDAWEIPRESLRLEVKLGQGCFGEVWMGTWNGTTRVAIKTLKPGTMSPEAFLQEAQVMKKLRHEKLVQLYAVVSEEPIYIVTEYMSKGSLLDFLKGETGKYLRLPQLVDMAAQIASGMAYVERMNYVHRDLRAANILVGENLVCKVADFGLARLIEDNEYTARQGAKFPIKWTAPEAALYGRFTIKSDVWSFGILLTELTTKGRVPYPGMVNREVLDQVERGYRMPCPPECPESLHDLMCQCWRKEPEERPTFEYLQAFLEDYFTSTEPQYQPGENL
The target of another assay is T3, TEC (Homo sapiens, UniProt P42680).
T3 sequence (P42680 1-631): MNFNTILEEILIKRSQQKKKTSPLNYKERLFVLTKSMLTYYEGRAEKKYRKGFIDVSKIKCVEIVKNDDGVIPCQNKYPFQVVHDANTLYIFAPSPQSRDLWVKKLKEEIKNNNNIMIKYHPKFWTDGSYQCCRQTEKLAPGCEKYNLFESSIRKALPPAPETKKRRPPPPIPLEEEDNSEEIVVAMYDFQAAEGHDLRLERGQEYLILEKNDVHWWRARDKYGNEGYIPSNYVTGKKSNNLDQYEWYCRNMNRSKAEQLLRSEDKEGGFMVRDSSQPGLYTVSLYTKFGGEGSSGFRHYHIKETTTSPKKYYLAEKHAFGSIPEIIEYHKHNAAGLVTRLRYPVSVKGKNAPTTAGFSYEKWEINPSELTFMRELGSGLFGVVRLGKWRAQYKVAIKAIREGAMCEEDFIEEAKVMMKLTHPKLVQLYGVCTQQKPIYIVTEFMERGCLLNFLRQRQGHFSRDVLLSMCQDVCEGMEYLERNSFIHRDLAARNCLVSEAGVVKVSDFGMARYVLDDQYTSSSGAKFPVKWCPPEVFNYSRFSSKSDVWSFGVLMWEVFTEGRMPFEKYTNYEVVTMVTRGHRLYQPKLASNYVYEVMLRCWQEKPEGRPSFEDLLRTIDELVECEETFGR
The assay can be described thus: Inhibition of a panel of kinases, in vitro HotSpot kinase assay: TEC. The conditions noted are these: D-compounds panel data; 1 μM ATP. As to the method:
as §1

Turning to `C[C@@H]1[C@H](NC(=O)c2cc(C(C)(C)C)n[nH]2)CCCN1c1cnc(C(N)=O)c(Nc2cnn(C)c2)n1` [Example D-244, 5-[(2R,3R)-3-(3-tert-butyl-1H-pyrazole-5-amido)-2-methylpiperidin-1-yl]-3-[(1-methyl-1H-pyrazol-4-yl)amino]pyrazine-2-carboxamide], the 50% inhibitory concentration (IC50) on BTK-WT is not above 10 nM; on LCK it was 100 to 1000 nM; against ITK it was 100 to 1000 nM; at SRC, 10 to 100 nM; on TEC it was 10 to 100 nM.

`C[C@@H]1[C@H](NC(=O)c2ccc(C3CC3)cc2)CCCN1c1cnc(C(N)=O)c(Nc2cc(C3CCOCC3)ns2)n1` [Example D-310, 5-[(2R,3R)-3-(4-cyclopropylbenzamido)-2-methylpiperidin-1-yl]-3-{[3-(oxan-4-yl)-1,2-thiazol-5-yl]amino}pyrazine-2-carboxamide]: the IC50 on BTK-WT is not above 10 nM; on LCK, 10 to 100 nM; against ITK, 10 to 100 nM; on SRC, 10 to 100 nM; on TEC, not above 10 nM.

Take `C[C@@H]1[C@H](NC(=O)c2ccc3c(c2)CCC(C)(C)O3)CCCN1c1cnc(C(N)=O)c(Nc2cnn(C)c2)n1` [Example D-258, 5-[(2R,3R)-3-(2,2-dimethyl-3,4-dihydro-2H-1-benzopyran-6-amido)-2-methylpiperidin-1-yl]-3-[(1-methyl-1H-pyrazol-4-yl)amino]pyrazine-2-carboxamide]: the 50% inhibitory concentration (IC50) on BTK-WT was not above 10 nM; on LCK, 100 to 1000 nM; against ITK it was 100 to 1000 nM; on SRC, 10 to 100 nM; on TEC, not above 10 nM.

Turning to `C[C@@H]1[C@H](NC(=O)c2ccc(C(O)C(F)(F)F)cc2)CCCN1c1cnc(C(N)=O)c(Nc2cnn(C)c2)n1` (single isomer, unassigned) [Example D-250], the IC50 on BTK-WT is not above 10 nM; at LCK, 10 to 100 nM; against ITK, 100 to 1000 nM; against SRC, 10 to 100 nM; against TEC, not above 10 nM.

Regarding `C[C@@H]1[C@H](NC(=O)N(C)C)CCCN1c1nnc(C(N)=O)c(Nc2cnn(C)c2)n1` [Example D-286, 3-[(2R,3R)-3-[(dimethylcarbamoyl)amino]-2-methylpiperidin-1-yl]-5-[(1-methyl-1H-pyrazol-4-yl)amino]-1,2,4-triazine-6-carboxamide], the IC50 on BTK-WT was not above 10 nM; on LCK, 100 to 1000 nM; at ITK, 10 to 100 nM; at SRC, 10 to 100 nM; against TEC, 10 to 100 nM.

Consider `C[C@@H]1[C@H](NC(=O)c2ccc(C3CC3)cc2C(F)(F)F)CCCN1c1cnc(C(N)=O)c(Nc2cnn(C)c2)n1` [Example D-25, 5-[(2R,3R)-3-[4-cyclopropyl-2-(trifluoromethyl)benzamido]-2-methylpiperidin-1-yl]-3-[(1-methyl-1H-pyrazol-4-yl)amino]pyrazine-2-carboxamide], for which the IC50 was in the range of 10 to 100 nM on BTK-WT; 100 to 1000 nM on LCK; 1000 to 10000 nM at ITK; 100 to 1000 nM at SRC; 10 to 100 nM against TEC.

Take `COCCN(C)c1ccc(C(=O)N[C@@H]2CCCN(c3cnc(C(N)=O)c(Nc4cnn(C)c4)n3)[C@@H]2C)cc1` [Example D-248, 5-[(2R,3R)-3-{4-[(2-methoxyethyl)(methyl)amino]benzamido}-2-methylpiperidin-1-yl]-3-[(1-methyl-1H-pyrazol-4-yl)amino]pyrazine-2-carboxamide]: the concentration for half-maximal inhibition (IC50) at BTK-WT is not above 10 nM; on LCK it was 10 to 100 nM; on ITK, 100 to 1000 nM; at SRC it was 10 to 100 nM; on TEC, not above 10 nM.

As for `C[C@@H]1[C@H](NC(=O)c2ccc(C3CC3)cc2)CCCN1c1cnc(C(N)=O)c(Nc2ccc3c(c2)CCOC3)n1` [Example D-303, 5-[(2R,3R)-3-(4-cyclopropylbenzamido)-2-methylpiperidin-1-yl]-3-[(3,4-dihydro-1H-2-benzopyran-6-yl)amino]pyrazine-2-carboxamide], the IC50 on BTK-WT was 10 to 100 nM; at LCK, more than 10000 nM; on ITK it was 1000 to 10000 nM; against SRC, 1000 to 10000 nM; against TEC, 10 to 100 nM.

As for `C[C@@H]1[C@H](NC(=O)c2ccc(C3CC3)cc2)CCCN1c1cnc(C(N)=O)c(Nc2cnn(C(F)F)c2)n1` [Example D-275, 5-[(2R,3R)-3-(4-cyclopropylbenzamido)-2-methylpiperidin-1-yl]-3-{[1-(difluoromethyl)-1H-pyrazol-4-yl]amino}pyrazine-2-carboxamide], the IC50 on BTK-WT was not above 10 nM; at LCK, 1000 to 10000 nM; at ITK it was 1000 to 10000 nM; at SRC, 100 to 1000 nM; against TEC it was 10 to 100 nM.

`C[C@@H]1[C@H](NC(=O)c2ccc(C3CC3)cc2)CCCN1c1cnc(C(N)=O)c(Nc2ccc(C3CCN(C)CC3)cc2)n1` [Example D-301, 5-[(2R,3R)-3-(4-cyclopropylbenzamido)-2-methylpiperidin-1-yl]-3-{[4-(1-methylpiperidin-4-yl)phenyl]amino}pyrazine-2-carboxamide]: the IC50 at BTK-WT was not above 10 nM; on LCK, 100 to 1000 nM; on ITK, 100 to 1000 nM; against SRC, 100 to 1000 nM; at TEC, 10 to 100 nM.

On to `C[C@@H]1[C@H](NC(=O)N(C)C)CCCN1c1cnc(C(N)=O)c(Nc2ccc(N3CCC(F)(F)CC3)cc2)n1` [Example D-306, 3-{[4-(4,4-difluoropiperidin-1-yl)phenyl]amino}-5-[(2R,3R)-3-[(dimethylcarbamoyl)amino]-2-methylpiperidin-1-yl]pyrazine-2-carboxamide], for which the IC50 on BTK-WT was not above 10 nM; on LCK, 100 to 1000 nM; against ITK, 100 to 1000 nM; against SRC, 100 to 1000 nM; against TEC, 10 to 100 nM.

On to `CC(=O)N1CCN(c2ccc(Nc3nc(N4CCC[C@@H](NC(=O)c5ccc(C6CC6)cc5)[C@H]4C)cnc3C(N)=O)cc2)CC1` [Example D-295, 3-{[4-(4-acetylpiperazin-1-yl)phenyl]amino}-5-[(2R,3R)-3-(4-cyclopropylbenzamido)-2-methylpiperidin-1-yl]pyrazine-2-carboxamide], for which the IC50 on BTK-WT is not above 10 nM; at LCK it was 10 to 100 nM; against ITK it was 100 to 1000 nM; against SRC it was 10 to 100 nM; at TEC it was not above 10 nM.

In the case of `C[C@@H]1[C@H](NC(=O)c2ccc(C(C)(C)C)cc2)CCCN1c1cnc(C(N)=O)c(Nc2ccc(OC3CCN(C)CC3)cc2)n1` [Example D-291, 5-[(2R,3R)-3-(4-tert-butylbenzamido)-2-methylpiperidin-1-yl]-3-({4-[(1-methylpiperidin-4-yl)oxy]phenyl}amino)pyrazine-2-carboxamide], the concentration for half-maximal inhibition (IC50) was not above 10 nM on BTK-WT; 10 to 100 nM on LCK; 10 to 100 nM against ITK; 10 to 100 nM against SRC; 10 to 100 nM on TEC.

For the compound `C[C@@H]1[C@H](NC(=O)c2cc3n(n2)CCC3)CCCN1c1cnc(C(N)=O)c(Nc2cnn(C)c2)n1` [Example D-263, 3-[(1-methyl-1H-pyrazol-4-yl)amino]-5-[(2R,3R)-2-methyl-3-{4H,5H,6H-pyrrolo[1,2-b]pyrazole-2-amido}piperidin-1-yl]pyrazine-2-carboxamide], the IC50 on BTK-WT was not above 10 nM; on LCK, 10 to 100 nM; at ITK it was 100 to 1000 nM; against SRC, 10 to 100 nM; against TEC, not above 10 nM.
